{"source": "patent US20030157708A1", "about": "“Cell stimulation apparatus and a cell stimulation method” (priority 2001, published 2003)", "type_in_all_cases": "cell-based, mice", "key": {"ErbB4": {"system": "ErbB4", "assay": "ErbB4 tyrosine-phosphorylation activity of conditioned media (immunoprecipitation / anti-phosphotyrosine blot)", "settings": "PMA stimulation for 60 minutes", "method": "In B, pontine nuclei neurons and granule cells with and without transfection of the transmembrane form of NRG were prepared and stimulated by PMA for 60 minutes and then the conditioned media were collected. Tyrosin-phosphorylation activity of the conditioned media was examined using cerebellar granule cells. The granule cell cultures were stimulated for 5 to 10 minutes with the conditioned media that were collected and concentrated. Lysates from granule cells were resolved by SDS-PAGE, and the blot was probed with an anti-phosphotyrosine antibody (4G10) after immunoprecipitation with anti-ErbB4 antibody. Tyrosine-phosphorylated bands of 180 kD were observed by stimulation (B). The conditioned media were collected from PN(non-transfected pontine neuclei neurons), tPN(transfected pontine neuclei neurons), GC(non-transfected granule cells), and tGC(transfected-granule cells). The result is summarized in C. The experiments were repeated independently three or four times.\nAfter electrical stimulation (1 mA, 30˜60V outside the cells) for 30 minutes on […] cells which were transfected with recombinant full length mNRG, the conditioned media obtained from the cells were collected and concentrated using centricon 10 and 100 (Millipore) to cut off large (>100 kd) and small (<10 kd) molecular weight proteins. […]"}, "[1]": {"system": "GABAA receptor β2 subunit", "settings": "7DIV granule cells, FIG. 10C; MK801 25 μM, CNQX 10 μM"}, "cultured granule cells": {"system": "cultured granule cells", "assay": "Release of NRG into conditioned media, read by CREB-phosphorylation of granule cells", "settings": "living cultured granule cells", "method": "In D, using cerebellar granule cells, CREB-phosphorylation was checked after the conditioned medium stimulation. Serum-starved cerebellar granule cells were treated (for 5 to 10 minutes) with conditioned media collected from pontine nuclus neuron and granule cell cultures. The conditioned media from pontine nuclei neurons was used for stimulation in a, b and c. In d, e and f, conditioned media were prepared from granule cell culture.\nTo detect CREB phosphorylation, 7DIV cultured granule cells were fixed with 4% paraformaldehyde for 10 minutes after conditioned media stimulation for 10 to 15 minutes, and stained with a polyclonal anti-NRG β1 antibody, a polyclonal anti-PCREB antibody (BioLabs). […] Alexa™ dyes (Molecular probe) were used as a secondary antibody.\nThe soluble forms released by PMA stimulation (60 minutes) were enriched using a spin column and added into the cultured granule cells. The stimulated granule cells were stained with anti-phospho-CREB antibody after fixation. The conditioned media from the pontine nuclei neurons was used for stimulation (a, b and c) and that from granule cell cultures for stimulation (d, e and f). […] The conditioned media (c and f) should have contained cleaved endogenous and recombinant NRG The subtraction of b from c and e from f indicated CREB-phosphorylation induced by sNRG that was from recombinant mNRG. […]"}, "[2]": {"system": "NMDA receptor NR2C subunit", "settings": "7DIV granule cells, MK801 25 μM"}}}
{"compound": "CCCCCCCCCCCCCC(=O)O[C@@H]1[C@@H](C)[C@@]2(O)[C@@H](C=C(CO)C[C@]3(O)C(=O)C(C)=C[C@@H]23)[C@@H]2C(C)(C)[C@]12OC(C)=O", "note": "[PMA, phorbol-12-myristate-13-acetate]", "values": [{"measurement": "Tyrosine-phosphorylated bands of 180 kD with conditioned media from mNRG-transfected neurons", "setting": "ErbB4", "value": "clearly observed"}]}
{"compound": "N#Cc1cc2[nH]c(=O)c(=O)[nH]c2cc1[N+](=O)[O-]", "note": "[CNQX]", "values": [{"measurement": "β2 transcription at 1.0 and 100 Hz stimulation, block", "setting": "[1]", "value": "blocked"}]}
{"compound": "[Cl-].[K+]", "note": "[KC1]", "values": [{"measurement": "release of NRG by stimulation", "setting": "cultured granule cells", "value": "could not be observed"}]}
{"compound": "C[C@]12N[C@H](Cc3ccccc31)c1ccccc12", "note": "[MK801]", "values": [{"measurement": "β2 transcription at 1.0 and 100 Hz stimulation, block", "setting": "[1]", "value": "blocked"}, {"measurement": "NR2C mRNA increase at 100 Hz (high frequency) stimulation, block", "setting": "[2]; 30 minutes stimulation, TTX 1 μM, Cd 100 μM, EGTA 1 mM", "value": "strongly blocked"}, {"measurement": "NR2C elevated transcription at 1 and 100 Hz, block", "setting": "[2]; FIG. 10C", "value": "strongly blocked"}]}
